ChEMBL document CHEMBL1147347, “Luffariolides F and G, new manoalide derivatives from the Okinawan marine sponge Luffariella sp” (J Nat Prod, 1993)
Values after ≈ are worked out from the molar mass of the structure shown.

Legend:
KB [1] = test: Cytotoxicity against human KB cells; type: functional, cell-based
L1210 = test: Cytotoxicity against mouse L1210 cells; type: functional, cell-based
KB [2] = test: Growth inhibition of human KB cells at 10 ug/ml; type: functional; details: read-out: GI

CC1=C(CC/C(C)=C/CC/C(C=O)=C\C=C\C2=CC(=O)O[C@H]2O)C(C)(C)CCC1
IC50 (KB [1]): 2.1 µg/mL (≈ 5.27 µM)
IC50 (L1210): 0.45 µg/mL (≈ 1.13 µM)

CC1=C(CC/C(C)=C/CC/C(=C/C[C@H]2OC(=O)C=C2CO)CO)C(C)(C)CCC1
inhibition of growth at 10 µg/mL (KB [2]): 36.9%
IC50 (L1210): 1.7 µg/mL (≈ 4.22 µM)

CC(=O)OC/C(=C\C[C@H]1OC(=O)C=C1CO)CC/C=C(\C)CCC1=C(C)CCCC1(C)C
inhibition of growth at 10 µg/mL (KB [2]): 44.8%
IC50 (L1210): 3 µg/mL (≈ 6.75 µM)

CC1=C(CC/C(C)=C/CC/C(C=O)=C\C[C@H]2OC(=O)C=C2CO)C(C)(C)CCC1
IC50 (KB [1]): 5.6 µg/mL (≈ 14 µM)
IC50 (L1210): 1 µg/mL (≈ 2.5 µM)

CC1=C(CC/C(C)=C/CC/C(=C/CC2OC(=O)C=C2CO)CO)C(C)(C)CCC1O (centres undefined) [LUFFARIOLIDE F]
inhibition of growth at 10 µg/mL (KB [2]): 33.4%
IC50 (L1210): 1.6 µg/mL (≈ 3.82 µM)

CC1=C(CCC(C)(O)/C=C/C/C(=C/CC2OC(=O)C=C2CO)CO)C(C)(C)CCC1 (centres undefined) [LUFFARIOLIDE G]
inhibition of growth at 10 µg/mL (KB [2]): 30.8%
IC50 (L1210): 2.8 µg/mL (≈ 6.69 µM)

CC1=C(CC/C(C)=C/CCC2=CC[C@H](C3=CC(=O)O[C@H]3O)O[C@H]2O)C(C)(C)CCC1 [MANOALIDE]
IC50 (KB [1]): 0.31 µg/mL (≈ 0.744 µM)
IC50 (L1210): 0.032 µg/mL (≈ 0.0768 µM)
